Experimental data from US9907601B2, “Methods and systems for chemical ablation” (Regents of the University of Minnesota, priority 2009, dated 2018).
Where two headings read alike, the source gives them in different places.

Assays:
[1] = In vitro injection of substrate and sodium permanganate solutions into a beaker, reaction temperature by thermocouple; format: physicochemical; conditions: for Average maximum temperature increase (° C.) Permanganate first / Average peak temperature (° C.) Permanganate first / Average maximum temperature increase (° C.) Simultaneous / Average peak temperature (° C.) Simultaneous / Average maximum temperature increase (° C.) Substrate first / Average peak temperature (° C.) Substrate first: substrate 1M/1 mL; for average maximum temperature: simultaneous injections, substrate 180 g/L, permanganate (1M, 1 mL)
Procedure: In vitro studies: All reagents were obtained from Sigma-Aldrich Chemical Co. (St. Louis, Mo.) unless otherwise noted. […] Exemplary reaction products of glycerol oxidation by permanganate include tartronic acid and glyceric acid (FIG. 8). Reaction temperature was measured by a thermocouple probe (type T MT-29/1; Physitemp Instruments, Clifton, N.J.) placed at the center of the beaker, with the tip submerged underneath the surface of the mixed solutions. Temperature recordings were made by a T-type thermocouple thermometer (Digi-Sense; Cole-Parmer, Vernon Hills, Ill.) at time intervals of 1 to 3 seconds from the onset of injections until the temperature dropped below 40° C. A series of different permanganate volumes (1, 2, and 3 mL) and concentrations (1 and 2M) were tested in order to study the effects of volume and concentration on temperature. Selected experiments were repeated with glucose, sucrose, maltodextrin (4-7 glucose unit average), and dextrin as substrates. The remaining substrates were different polysaccharides (starch, cellulose and glycogen) and polyvinyl alcohol. See, FIG. 9. All were used as 180 g/L (carbohydrates based on glucose) solutions and/or suspensions rather than expressing concentration in molarity due to their polymeric nature.

[2] = system: osteosarcoma cell line 143B; format: cell-based
[3] = system: 143B cells; assay: DNA fragmentation assay, 143B; format: cell-based, human
Procedure: (§1) Cell lysates were incubated at 37° C. for 3 hours, and the samples were centrifuged at 13,000 rpm for 30 minutes. Supernatants containing DNA were extracted with phenol-chloroform and precipitated with ethanol. Equal amounts of DNA were resolved on a 2% agarose gel containing ethidium bromide, and bands corresponding to nucleosomes were visualized under ultra violet light.

[4] = system: breast cancer cell line MCF-7; assay: MTT cell viability assay, MCF-7
Procedure: Cells were plated in 96-well plates for the MTT assays at a concentration of 3×10^5 cells per well overnight prior to performing the assays.
Cell viability assay: Cell viability assays were performed using as a substrate the MTT reagent 3-(4,5-Dimethylthiazol-2-yl)-2,5-diphenyltetrazolium bromide (Sigma-Aldrich, St. Louis, Mo.) at a concentration of 10 μg/100 μl. Growth medium was aspirated from the wells and cells were washed twice with 1×PBS. […] One hundred μl of MTT substrate was added to each well in a 96-well plate and plates were incubated for 1 hour at 37° C. Cells were then gently washed in 1×PBS and 100 μl stop solution (acidified phenol) was added to each well. Plates were incubated again at 37° C. for 30 minutes and the colorimetric changes in the cells were measured using a plate reader at 570 nm. Only the live viable cells are able to convert yellow colored MTT reagent into purple colored formazan.

[5] = system: HuH-7 cells
[6] = system: MCF-7 cells; assay: DNA fragmentation assay, MCF-7; format: cell-based, human
Procedure: as §1

[7] = system: HepG2 cells; conditions: Castañeda and Kinne 2000; cited from earlier work
[8] = system: HuH-7 cells; assay: DNA fragmentation assay, HuH-7; format: cell-based, human; conditions: 1 M urea for 2 hours
Procedure: as §1

[9] = NaMnO4 (1M/1 mL), permanganate first
[10] = NaMnO4 (1M/1 mL), simultaneous injection
[11] = NaMnO4 (1M/1 mL), substrate first
[12] = NaMnO4 (1M/2 mL), permanganate first
[13] = NaMnO4 (1M/2 mL), simultaneous injection
[14] = NaMnO4 (1M/2 mL), substrate first
[15] = NaMnO4 (1M/3 mL), permanganate first
[16] = NaMnO4 (1M/3 mL), simultaneous injection
[17] = NaMnO4 (1M/3 mL), substrate first
[18] = NaMnO4 (2M/1 mL), permanganate first
[19] = NaMnO4 (2M/1 mL), simultaneous injection
[20] = NaMnO4 (2M/1 mL), substrate first
[21] = 3% ethanol, exposure for 2 hours

Row | Average maximum temperature increase (° C.) Permanganate first [1, 9] | Average peak temperature (° C.) Permanganate first [1, 9] | Average maximum temperature increase (° C.) Simultaneous [1, 10] | Average peak temperature (° C.) Simultaneous [1, 10] | Average maximum temperature increase (° C.) Substrate first [1, 11] | Average peak temperature (° C.) Substrate first [1, 11] | Average maximum temperature increase (° C.) Permanganate first [1, 12] | Average peak temperature (° C.) Permanganate first [1, 12] | Average maximum temperature increase (° C.) Simultaneous [1, 13] | Average peak temperature (° C.) Simultaneous [1, 13] | Average maximum temperature increase (° C.) Substrate first [1, 14] | Average peak temperature (° C.) Substrate first [1, 14] | Average maximum temperature increase (° C.) Permanganate first [1, 15] | Average peak temperature (° C.) Permanganate first [1, 15] | Average maximum temperature increase (° C.) Simultaneous [1, 16] | Average peak temperature (° C.) Simultaneous [1, 16] | Average maximum temperature increase (° C.) Substrate first [1, 17] | Average peak temperature (° C.) Substrate first [1, 17] | Average maximum temperature increase (° C.) Permanganate first [1, 18] | Average peak temperature (° C.) Permanganate first [1, 18] | Compound | also measured
1 | 37.6 °C | 59.3 °C | 41.4 °C | 63.9 °C | 48.4 °C | 71.1 °C | 48.5 °C | 70.3 °C | 66.3 °C | 89.1 °C | 64.4 °C | 86.7 °C | 55.3 °C | 77.9 °C | 66.6 °C | 90.6 °C | 67.5 °C | 90.3 °C | 75.4 °C | 97.0 °C | OCC(O)CO [Glycerol, glycerol] | Average maximum temperature increase (° C.) Simultaneous [1, 19]: 74.5 °C; Average peak temperature (° C.) Simultaneous [1, 19]: 97.4 °C; Average maximum temperature increase (° C.) Substrate first [1, 20]: 76.9 °C; Average peak temperature (° C.) Substrate first [1, 20]: 99.1 °C; average maximum temperature, permanganate first ([1]; volume of substrate (1M) raised to 2 mL, permanganate 1M, permanganate first): 54.1 °C; average maximum temperature, simultaneous ([1]; volume of substrate (1M) raised to 2 mL, permanganate 1M, simultaneous injection): 53.1 °C; average maximum temperature, substrate first ([1]; volume of substrate (1M) raised to 2 mL, permanganate 1M, substrate first): 56.7 °C
2 | 24.9 °C | 46.4 °C | 33.5 °C | 56.8 °C | 37.1 °C | 58.9 °C | 42.1 °C | 64.9 °C | 51.0 °C | 73.6 °C | 60.0 °C | 82.1 °C | 51.5 °C | 74.6 °C | 66.9 °C | 90.1 °C | 63.0 °C | 85.1 °C | 76.7 °C | 100.0 °C | OC[C@H]1O[C@@](CO)(O[C@H]2O[C@H](CO)[C@@H](O)[C@H](O)[C@H]2O)[C@@H](O)[C@@H]1O [Sucrose, sucrose] | average maximum temperature, permanganate-first ([1]; concentration of the sucrose solution (1 mL) raised to 2M, permanganate-first): 100.0 °C; average maximum temperature, simultaneous ([1]; concentration of the sucrose solution (1 mL) raised to 2M, simultaneous injection): 100.2 °C; average maximum temperature, sucrose-first ([1]; concentration of the sucrose solution (1 mL) raised to 2M, sucrose-first): 99.8 °C; Average maximum temperature increase (° C.) Simultaneous [1, 19]: 77.0 °C; Average peak temperature (° C.) Simultaneous [1, 19]: 100.2 °C; Average maximum temperature increase (° C.) Substrate first [1, 20]: 77.7 °C; Average peak temperature (° C.) Substrate first [1, 20]: 99.8 °C; average temperature increase, permanganate-first ([1]; volume of sucrose solution increased to 2 mL, permanganate-first): 44.6 °C; average temperature increase, simultaneous ([1]; volume of sucrose solution increased to 2 mL, simultaneous injection): 45.9 °C; average temperature increase, sucrose-first ([1]; volume of sucrose solution increased to 2 mL, sucrose-first): 51.0 °C
3 | – | – | – | – | – | – | – | – | – | – | – | – | – | – | – | – | – | – | – | – | CCO [ethanol] | cells died ([2]; 1% ethanol, 24 hour exposure): > 90%; cell death [2, 21]: > 90%; apoptosis by DNA laddering ([3]; 10% ethanol for 6 hours): A similar result; cells died ([4]; 1% ethanol, 24 hour exposure): > 90%; cell death [4, 21]: > 90%; cell death ([5]; 2% ethanol, 6 hours of exposure): 50%; cytotoxicity ([5]; 4% ethanol, 2 hours): lethal; cytotoxicity ([5]; ethanol 3% (v/v)): toxic; cytotoxicity ([5]; ethanol 5% (v/v)): toxic; apoptosis by DNA laddering ([6]; 10% ethanol for 6 hours): A similar result; apoptosis [7]: induces apoptosis
4 | – | – | – | – | – | – | – | – | – | – | – | – | – | – | – | – | – | – | – | – | NC(N)=O [urea] | apoptosis by DNA laddering ([3]; 1 M urea for 2 hours): induced apoptosis; apoptosis by DNA laddering [8]: induced apoptosis; cells survived ([5]; 250 mM urea, 24 hours): 50%; cells survived ([5]; 750 mM urea, 6 hour exposure): about 50%; apoptosis by DNA laddering ([6]; 1 M urea for 2 hours): induced apoptosis
5 | – | – | – | – | – | – | – | – | – | – | – | – | – | – | – | – | – | – | – | – | dextrin | average maximum temperature [1]: 51.1 °C
6 | – | – | – | – | – | – | – | – | – | – | – | – | – | – | – | – | – | – | – | – | maltodextrin | average maximum temperature [1]: 42.5 °C
